Data: PMC4270692, “Using a Non-Image-Based Medium-Throughput Assay for Screening Compounds Targeting N-myristoylation in Intracellular Leishmania Amastigotes” (PLoS Neglected Tropical Diseases, 2014)
Entries after “also recorded” stand apart in the source; their conditions may differ. Where two headings read alike, the source gives them in different places.

What was measured:
[1] = tested on: extracellular L. donovani amastigotes; test: Extracellular assay on amastigotes freshly isolated from mouse spleens, 72 h at 26°C, Alamar blue; format: cell-based, Leishmania donovani; details: for EC50: Leishmania donovani; for Cellular (leishmanicidal) activity in words: extracellular assay
[2] = tested on: bone marrow derived macrophages
[3] = tested on: intracellular L. donovani amastigotes; test: Intracellular amastigote assay: infected macrophages treated 72 h, saponin lysis, transformation to promastigotes, Alamar blue; format: cell-based, Leishmania donovani; details: for Effect on intracellular amastigotes at the highest concentration tested: 45 µM, after an "activity valley" at 15 µM; for EC50: Leishmania donovani, Macrophage
[4] = target: L. donovani NMT (Leishmania donovani, UniProt D0AB09); test: biochemical; format: biochemical
Sequence of L. donovani NMT (D0AB09 1-421): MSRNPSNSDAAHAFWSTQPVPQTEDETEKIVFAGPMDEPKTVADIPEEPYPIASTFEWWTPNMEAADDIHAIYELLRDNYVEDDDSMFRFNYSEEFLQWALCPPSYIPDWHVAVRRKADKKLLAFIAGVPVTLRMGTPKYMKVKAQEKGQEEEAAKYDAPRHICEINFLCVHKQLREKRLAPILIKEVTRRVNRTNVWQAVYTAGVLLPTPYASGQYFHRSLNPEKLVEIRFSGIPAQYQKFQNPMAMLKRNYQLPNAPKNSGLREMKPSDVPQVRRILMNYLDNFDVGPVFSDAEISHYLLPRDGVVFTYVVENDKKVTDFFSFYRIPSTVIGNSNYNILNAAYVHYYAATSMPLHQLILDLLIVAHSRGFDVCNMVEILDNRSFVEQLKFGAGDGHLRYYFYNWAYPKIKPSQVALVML

[5] = 72 h, read-out: EC50 extracellular L. donovani amastigotes
[6] = NMT inhibitors, 72 h in infected macrophages, n.p. = not possible
[7] = NMT inhibitors, 72 h at 26°C, read-out: EC50 extracellular L. donovani amastigotes
[8] = 72 h, 3-day treatment of infected bone marrow derived macrophages, mean of biological repeats, read-out: EC50 ± SD intracellular L. donovani amastigotes
[9] = Figure 3, representative dose response curve, 72 h incubation, read-out: EC50 intracellular L. donovani amastigotes, representative plot
[10] = 72 h, 3-day treatment, splenic amastigotes from Rag2−/− mice, incubation at 26°C, read-out: EC50 ± SD extracellular L. donovani amastigotes

SMILES: O=C(Cc1ccc(F)cc1)Nc1ccc2[nH]cc(C3CCNCC3)c2c1 [IMP-0000556]
- EC50 [1, 5]: > 30000 nM
- Cellular (leishmanicidal) activity in words [1]: did not result in any leishmanicidal activity
- LD50 bone marrow derived macrophages ([2]; female, BALB/c, mouse, 72 h): >45 µM

SMILES: Cc1nn(C)c(C)c1NS(=O)(=O)c1c(Cl)cc(-c2ccnc(N3CCN(C)CC3)c2)cc1Cl [DDD86211]
- Effect on intracellular amastigotes at the highest concentration tested [3]: complete killing of the parasites; also recorded: all amastigotes cleared from the macrophages
- EC50 intracellular L. donovani amastigotes [3, 6]: n.p.
- EC50 [1, 7]: 180 nM
- LD50 bone marrow derived macrophages ([2]; female, BALB/c, mouse, 72 h): >45 µM

SMILES: CN1CCC(N(C)c2nc(N(C)CCC#N)c3sccc3n2)CC1 [IMP-0000083]
- Activity in the intracellular assay (in words) [3]: no activity
- EC50 [1, 7]: 24000 nM
- Cellular (leishmanicidal) activity in words [1]: moderate cellular activity
- IC50 [4]: 281 nM
- Fold less potent in inhibition of LdNMT than IMP-0000195 ([4]; relative to IMP-0000195): ~4 fold
- Host cell toxicity (in words) [2]: no toxicity to host cells
- LD50 bone marrow derived macrophages ([2]; 72 h): >45 µM
- Concentration up to which no host cell cytotoxicity was seen ([2]; female, BALB/c, mouse, 72 h): at least 45 µM

SMILES: Cc1nn(C)c(C)c1NS(=O)(=O)c1c(Cl)cc(-c2ccnc(N3CCNCC3)c2)cc1Cl [DDD85646]
- Effect on intracellular amastigotes at the highest concentration tested [3]: complete killing of the parasites; also recorded: all amastigotes cleared from the macrophages
- EC50 intracellular L. donovani amastigotes [3, 6]: n.p.
- EC50 [1, 5]: 8000 nM
- LD50 bone marrow derived macrophages ([2]; 72 h): >45 µM

SMILES: C[C@@H]1[C@H](O)[C@@H](C)/C=C/C=C/C=C/C=C/C=C/C=C/C=C/[C@H](O[C@@H]2O[C@H](C)[C@@H](O)[C@H](N)[C@@H]2O)C[C@@H]2O[C@](O)(C[C@@H](O)C[C@@H](O)[C@H](O)CC[C@@H](O)C[C@@H](O)CC(=O)O[C@H]1C)C[C@H](O)[C@H]2C(=O)O [Amphotericin B, amphotericin B]
- EC50 [3, 8]: 30 ± 9 nM
- EC50 [3, 9]: 29 nM
- EC50 [1, 10]: 50 ± 11 nM

SMILES: Cc1nn(C)c(C)c1N(C(F)F)[S+](=O)([O-])c1c(Cl)cc(-c2ccnc(N3CCNCC3)c2)cc1Cl [DDD100887]
- EC50 ([3]; NMT inhibitors, 72 h in infected macrophages, n.p. = not possible, read-out: EC50 intracellular L. donovani amastigotes): 190 nM
- EC50 [1, 7]: 660 nM
- LD50 bone marrow derived macrophages ([2]; female, BALB/c, mouse, 72 h): 23 µM

SMILES: c1cncc(CCNCc2cccc(-c3cccc(CN4CCc5ncsc5C4)c3)c2)c1 [IMP-0000197]
- Activity in the intracellular assay (in words) [3]: no activity
- EC50 [1, 7]: 16000 nM
- Cellular (leishmanicidal) activity in words [1]: moderate cellular activity
- Concentration up to which no host cell cytotoxicity was seen [2]: at least 45 µM
- LD50 bone marrow derived macrophages ([2]; female, BALB/c, mouse, 72 h): 50 µM

SMILES: N[C@@H](CC(=O)N1C[C@H](CO)[C@@H](c2ccc(Cl)cc2)C1)Cc1ccc(Cl)cc1 [IMP-0000195]
- EC50 [1, 7]: 12000 nM
- IC50 ([4]; read-out: IC50 L. donovani NMT): 76.5 nM
- LD50 bone marrow derived macrophages ([2]; female, BALB/c, mouse, 72 h): 12 µM
- Host cell toxicity (in words) ([2]; macrophages): equally toxic to macrophages; also recorded: host cell toxicity and no selectivity

SMILES: CCCCCCCCCCCCCCCCOP(=O)([O-])OCC[N+](C)(C)C [Miltefosine, miltefosine]
- EC50 [3, 8]: 1380 ± 60 nM
- EC50 [3, 9]: 1450 nM
- EC50 [1, 10]: 7850 ± 500 nM
